{"source": "patent US20260355318A1", "about": "“MOLECULAR MACHINES FOR TREATMENT OF CANCER, FUNGAL INFECTIONS, OR BACTERIAL INFECTIONS” (priority 2022, published 2026)", "key": {"[1]": {"system": "persister cells of A. baumannii", "assay": "Persister eradication, A. baumannii", "type": "cell-based, Acinetobacter baumannii", "conditions": "1×MIC, 405 nm"}, "[2]": {"assay": "Photodegradation of MMs by 1H NMR", "type": "physicochemical", "conditions": "5 min, 146 mW cm^−2 405 nm, DMSO-d6", "protocol": "Aromatic region of ^1H NMR (600 MHz) spectra of MM 1 (300 mM in DMSO-d6) before and after irradiation for 5 min with 146 mW cm^−2 of 405 nm light."}, "[3]": {"system": "mature C. albicans biofilms", "assay": "Biofilm viability (XTT assay)", "type": "cell-based, Candida albicans", "conditions": "2×, 4×MIC, vs DMSO, MMs with 87.6 J cm^−2 405-nm light", "experimental": "The antibiofilm activity of MMs was investigated using 96-well microtiter plates with flat-bottom wells as a closed static biofilm reactor. This setup is reliable, inexpensive, easy to use and obtain, and requires no additional equipment (Pierce et al., 2010). Two parameters were used to evaluate antibiofilm activity: biofilm biomass and biofilm viability. Biofilm biomass was determined using the crystal violet method (Martins et al, 2010), a simple, inexpensive, and readily accessible method for determining biofilm biomass. However, because crystal violet binds both live and dead cells as well as extracellular polymeric substances, it cannot be used alone to reliably assess antibiofilm activity. To overcome this limitation, the XTT assay was used to evaluate biofilm viability (Nett et al., 2011). […] The resulting formazan can be easily detected by measuring the absorbance at 490 nm, which is proportional to the number of living cells, providing a reliable quantitative measurement of metabolically active cells in biofilms (Taff et al., 2012). […]\nBiofilm viability was determined using an XTT cell viability assay kit (Biotium, Hayward, CA, USA) per the manufacturer's instructions. […] Normalized absorbance values were obtained by subtracting the background from the signal."}, "E. coli [4]": {"system": "E. coli", "assay": "Antibacterial activity of pre-irradiated MM 1", "type": "cell-based, Escherichia coli", "conditions": "pre-irradiation 25 min", "experimental": "Influence of MM pre-irradiation on the inactivation of E. coli. Top: (1) To test the influence of pre-irradiating MMs on their antibacterial effects, MM 1 was added to a Petri dish containing PBS (final concentration of 8 μM) and irradiated for 25 min at 146 mW cm^−2 with 405 nm light. Cells were then added to an OD of ≈0.02, incubated in the dark for 30 min and then irradiated for up to 10 min at 146 mW cm^−2 with 405 nm light; (2) Independently, MM 1 was added to a Petri dish containing PBS (final concentration of […]), cells were then added to an OD600 of ≈0.02, incubated in the dark for 30 min and then irradiated for up to 10 min at 146 mW cm^−2 with 405 nm light. Bottom: Time-dependent reduction in colony-forming units (expressed as the logarithm of the ratio between the cell number at every time point and the cell number at time zero) of cells treated with pre-irradiated MM 1 or non-irradiated MM 1."}, "E. coli transcripts": {"system": "E. coli transcripts", "assay": "GO enrichment analysis of transcripts more abundant in DMSO controls than in MM 1-treated E. coli", "type": "cell-based, Escherichia coli", "conditions": "more abundant in DMSO controls than at 0.5×MIC, 405 nm", "experimental": "Gene ontology (GO) enrichment analysis of the transcripts displaying significant differences (p<0.05) in abundance between MM- and DMSO-treated cells was performed using Panther (http://pantherdb.org/) using the Fisher's Exact test. Results were corrected for the false discovery rate (FDR)."}, "E. coli [5]": {"system": "E. coli", "assay": "Extracellular ATP, E. coli", "type": "cell-based, Escherichia coli", "conditions": "1×MIC", "experimental": "Intracellular content leakage following treatment with MMs was determined by quantifying extracellular ATP (O'Neill et al, 2004). Following irradiation in the presence of different concentrations of MM 1, MM 5, and MM 6, or 1% DMSO, E. coli cells were centrifuged at 13,000 g for 5 min. Supernatants were recovered and stored at −20 ° C for ATP analysis. ATP analysis was conducted using the luminescence-based BacTiter-Glo™ assay (Promega) per the manufacturer's instructions. Nisin was used as a positive control. The levels of ATP in supernatants were derived via a standard curve of ATP standards from 1 nM to 1 μM. Luminescence measurements of ATP standards and culture supernatants were measured in triplicate on a microplate reader (BioTek Instruments Inc, Winooski, VT, USA). Results were expressed as relative light units (RLU) corrected for […] in the absence of cells."}, "[6]": {"conditions": "cytosolic small ribosomal subunit"}, "[7]": {"conditions": "integral component of plasma membrane"}, "[8]": {"conditions": "intracellular anatomical structure"}, "[9]": {"conditions": "intracellular non-membrane-bounded organelle"}, "[10]": {"conditions": "intrinsic component of membrane"}, "[11]": {"conditions": "intrinsic component of plasma membrane"}, "[12]": {"conditions": "plasma membrane protein complex"}, "[13]": {"conditions": "plasma membrane respiratory chain complex I"}}, "data": [{"smiles": "C[C@@H]1Cc2ccc3ccccc3c2/C1=C1\\c2ccccc2Sc2cc(NCCN(C)C)ccc21", "note": "[MM 1, N^1N^1-dimethyl-N^2-(9-(2-methyl-2,3-dihydro-1H-cyclopenta[a]naphthalen-1-ylidene)-9H-thioxanthen-3-yl) ethane-1,2-diamine]", "values": [{"measurement": "time to reduce persister cells to limit of detection", "setting": "[1]", "result": 3, "unit": "min"}, {"measurement": "photodegradation", "setting": "[2]", "result": "does not cause detectable photodegradation of MMs"}, {"measurement": "reduction of biofilm viability", "setting": "[3]", "result": "up to 96%"}, {"measurement": "antibacterial activity after pre-irradiation", "setting": "E. coli [4]", "result": "does not lead to loss of MM antibacterial activity"}, {"measurement": "Fold Enrichment", "setting": "E. coli transcripts; NADH dehydrogenase complex", "result": 3.02}, {"measurement": "transcripts significantly enriched in DMSO controls, #", "setting": "E. coli transcripts; NADH dehydrogenase complex", "result": 15}, {"measurement": "Fold Enrichment", "setting": "E. coli transcripts; Unclassified (−)", "result": ".71"}, {"measurement": "transcripts significantly enriched in DMSO controls, #", "setting": "E. coli transcripts; Unclassified (−)", "result": 300}, {"measurement": "Fold Enrichment", "setting": "E. coli transcripts; catalytic complex", "result": 1.51}, {"measurement": "transcripts significantly enriched in DMSO controls, #", "setting": "E. coli transcripts; catalytic complex", "result": 129}, {"measurement": "Fold Enrichment", "setting": "E. coli transcripts; cell periphery", "result": 1.15}, {"measurement": "transcripts significantly enriched in DMSO controls, #", "setting": "E. coli transcripts; cell periphery", "result": 454}, {"measurement": "Fold Enrichment", "setting": "E. coli transcripts; cellular anatomical entity", "result": 1.14}, {"measurement": "transcripts significantly enriched in DMSO controls, #", "setting": "E. coli transcripts; cellular anatomical entity", "result": 969}, {"measurement": "Fold Enrichment", "setting": "E. coli transcripts; cytoplasm", "result": 1.18}, {"measurement": "transcripts significantly enriched in DMSO controls, #", "setting": "E. coli transcripts; cytoplasm", "result": 487}, {"measurement": "Fold Enrichment", "setting": "E. coli transcripts; cytosol", "result": 1.28}, {"measurement": "transcripts significantly enriched in DMSO controls, #", "setting": "E. coli transcripts; cytosol", "result": 394}, {"measurement": "transcripts significantly enriched in DMSO controls, #", "setting": "E. coli transcripts; cytosolic large ribosomal subunit", "result": 25}, {"measurement": "Fold Enrichment", "setting": "E. coli transcripts; cytosolic ribosome", "result": 2.64}, {"measurement": "transcripts significantly enriched in DMSO controls, #", "setting": "E. coli transcripts; cytosolic ribosome", "result": 44}, {"measurement": "Fold Enrichment", "setting": "E. coli transcripts; [6]", "result": 2.60}, {"measurement": "transcripts significantly enriched in DMSO controls, #", "setting": "E. coli transcripts; [6]", "result": 19}, {"measurement": "Fold Enrichment", "setting": "E. coli transcripts; integral component of membrane", "result": 1.20}, {"measurement": "transcripts significantly enriched in DMSO controls, #", "setting": "E. coli transcripts; integral component of membrane", "result": 386}, {"measurement": "Fold Enrichment", "setting": "E. coli transcripts; [7]", "result": 1.27}, {"measurement": "transcripts significantly enriched in DMSO controls, #", "setting": "E. coli transcripts; [7]", "result": 216}, {"measurement": "Fold Enrichment", "setting": "E. coli transcripts; [8]", "result": 1.20}, {"measurement": "transcripts significantly enriched in DMSO controls, #", "setting": "E. coli transcripts; [8]", "result": 509}, {"measurement": "Fold Enrichment", "setting": "E. coli transcripts; [9]", "result": 2.09}, {"measurement": "transcripts significantly enriched in DMSO controls, #", "setting": "E. coli transcripts; [9]", "result": 61}, {"measurement": "Fold Enrichment", "setting": "E. coli transcripts; intracellular organelle", "result": 2.01}, {"measurement": "transcripts significantly enriched in DMSO controls, #", "setting": "E. coli transcripts; intracellular organelle", "result": 63}, {"measurement": "Fold Enrichment", "setting": "E. coli transcripts; [10]", "result": 1.19}, {"measurement": "transcripts significantly enriched in DMSO controls, #", "setting": "E. coli transcripts; [10]", "result": 392}, {"measurement": "Fold Enrichment", "setting": "E. coli transcripts; [11]", "result": 1.29}, {"measurement": "transcripts significantly enriched in DMSO controls, #", "setting": "E. coli transcripts; [11]", "result": 225}, {"measurement": "Fold Enrichment", "setting": "E. coli transcripts; large ribosomal subunit", "result": 2.67}, {"measurement": "transcripts significantly enriched in DMSO controls, #", "setting": "E. coli transcripts; large ribosomal subunit", "result": 25}, {"measurement": "Fold Enrichment", "setting": "E. coli transcripts; membrane protein complex", "result": 1.55}, {"measurement": "transcripts significantly enriched in DMSO controls, #", "setting": "E. coli transcripts; membrane protein complex", "result": 98}, {"measurement": "Fold Enrichment", "setting": "E. coli transcripts; membrane", "result": 1.16}, {"measurement": "transcripts significantly enriched in DMSO controls, #", "setting": "E. coli transcripts; membrane", "result": 470}, {"measurement": "Fold Enrichment", "setting": "E. coli transcripts; non-membrane-bounded organelle", "result": 1.68}, {"measurement": "transcripts significantly enriched in DMSO controls, #", "setting": "E. coli transcripts; non-membrane-bounded organelle", "result": 64}, {"measurement": "Fold Enrichment", "setting": "E. coli transcripts; organelle", "result": 1.65}, {"measurement": "transcripts significantly enriched in DMSO controls, #", "setting": "E. coli transcripts; organelle", "result": 66}, {"measurement": "Fold Enrichment", "setting": "E. coli transcripts; oxidoreductase complex", "result": 2.47}, {"measurement": "transcripts significantly enriched in DMSO controls, #", "setting": "E. coli transcripts; oxidoreductase complex", "result": 47}, {"measurement": "Fold Enrichment", "setting": "E. coli transcripts; [12]", "result": 1.51}, {"measurement": "transcripts significantly enriched in DMSO controls, #", "setting": "E. coli transcripts; [12]", "result": 73}, {"measurement": "Fold Enrichment", "setting": "E. coli transcripts; plasma membrane respirasome", "result": 2.99}, {"measurement": "transcripts significantly enriched in DMSO controls, #", "setting": "E. coli transcripts; plasma membrane respirasome", "result": 21}, {"measurement": "Fold Enrichment", "setting": "E. coli transcripts; [13]", "result": 2.99}, {"measurement": "transcripts significantly enriched in DMSO controls, #", "setting": "E. coli transcripts; [13]", "result": 14}, {"measurement": "Fold Enrichment", "setting": "E. coli transcripts; plasma membrane", "result": 1.19}, {"measurement": "transcripts significantly enriched in DMSO controls, #", "setting": "E. coli transcripts; plasma membrane", "result": 431}, {"measurement": "Fold Enrichment", "setting": "E. coli transcripts; protein-containing complex", "result": 1.47}, {"measurement": "transcripts significantly enriched in DMSO controls, #", "setting": "E. coli transcripts; protein-containing complex", "result": 258}, {"measurement": "Fold Enrichment", "setting": "E. coli transcripts; respirasome", "result": 3.04}, {"measurement": "transcripts significantly enriched in DMSO controls, #", "setting": "E. coli transcripts; respirasome", "result": 24}, {"measurement": "Fold Enrichment", "setting": "E. coli transcripts; respiratory chain complex I", "result": 2.99}, {"measurement": "transcripts significantly enriched in DMSO controls, #", "setting": "E. coli transcripts; respiratory chain complex I", "result": 14}, {"measurement": "Fold Enrichment", "setting": "E. coli transcripts; respiratory chain complex", "result": 3.01}, {"measurement": "transcripts significantly enriched in DMSO controls, #", "setting": "E. coli transcripts; respiratory chain complex", "result": 22}, {"measurement": "Fold Enrichment", "setting": "E. coli transcripts; ribonucleoprotein complex", "result": 2.61}, {"measurement": "transcripts significantly enriched in DMSO controls, #", "setting": "E. coli transcripts; ribonucleoprotein complex", "result": 45}, {"measurement": "Fold Enrichment", "setting": "E. coli transcripts; ribosomal subunit", "result": 2.64}, {"measurement": "transcripts significantly enriched in DMSO controls, #", "setting": "E. coli transcripts; ribosomal subunit", "result": 44}, {"measurement": "Fold Enrichment", "setting": "E. coli transcripts; ribosome", "result": 2.51}, {"measurement": "transcripts significantly enriched in DMSO controls, #", "setting": "E. coli transcripts; ribosome", "result": 47}, {"measurement": "Fold Enrichment", "setting": "E. coli transcripts; small ribosomal subunit", "result": 2.60}, {"measurement": "transcripts significantly enriched in DMSO controls, #", "setting": "E. coli transcripts; small ribosomal subunit", "result": 19}, {"measurement": "extracellular levels of ATP", "setting": "E. coli [5]", "result": "up to 1.2×10^−7 moles"}]}]}
